Assay results: ChEMBL document CHEMBL6071135, “New resorcylic acid derivatives of Lysimachia tengyuehensis against MRSA and VRE by interfering with bacterial metabolic imbalance” (Eur J Med Chem, 2024)
Converted amounts (≈) assume the structure as drawn. The source made the active and inactive calls. No cut-off for these calls is given here.

Assays:
Staphylococcus aureus [1] = assay: Antimicrobial activity against methicillin-resistant Staphylococcus aureus assessed as reduction in bacterial growth in presence of phosphatidylglycerol by checkerboard broth dilution method; format: functional, organism-based
Staphylococcus aureus [2] = assay: Induction of morphological changes in methicillin-resistant Staphylococcus aureus assessed as appearance of ruptured bacterial surface at 4 times MIC measured for 5 hrs by field emission scanning electron microscopy based analysis; format: functional, organism-based
Cell membrane [3] = assay: Induction of cell membrane damage in methicillin-resistant Staphylococcus aureus assessed as increase in ROS accumulation at 4 times MIC incubated for 1 hr by fluorescence based analysis; format: subcellular
Staphylococcus aureus [4] = assay: Induction of morphological changes in biofilm of methicillin-resistant Staphylococcus aureus assessed as appearance of destroyed biofilm at 1 to 4 times MIC incubated for 24 hrs by DAPI staining based fluorescence microscopy analysis; format: functional, organism-based
Staphylococcus aureus [5] = assay: Induction of morphological changes in biofilm of methicillin-resistant Staphylococcus aureus assessed as appearance of broken biofilm at 1 to 4 times MIC incubated for 24 hrs by DAPI staining based fluorescence microscopy analysis; format: functional, organism-based
Enterococcus faecalis [6] = assay: Induction of morphological changes in vancomycin-resistant Enterococcus faecalis ATCC51299 assessed as appearance of flocculated bacterial surface at 4 times MIC measured for 5 hrs by field emission scanning electron microscopy based analysis; format: functional, organism-based
Enterococcus faecalis [7] = assay: Bactericidal activity against vancomycin-resistant Enterococcus faecalis ATCC51299 assessed as reduction in number of bacteria at 2 times MIC measured within 15 mins by time-kill assay; format: functional, organism-based
Enterococcus faecalis [8] = assay: Antibacterial activity against vancomycin-resistant Enterococcus faecalis ATCC51299 at sub-MIC concentration measured after 24 hrs by CLSI based broth microdilution method; format: functional, organism-based
Staphylococcus aureus [9] = assay: Induction of morphological changes in methicillin-resistant Staphylococcus aureus assessed as appearance of flocculated bacterial surface at 4 times MIC measured for 5 hrs by field emission scanning electron microscopy based analysis; format: functional, organism-based
Staphylococcus aureus [10] = assay: Bactericidal activity against methicillin-resistant Staphylococcus aureus measured after 24 hrs by CLSI based broth microdilution method; format: functional
Enterococcus faecalis [11] = assay: Antimicrobial activity against vancomycin-resistant Enterococcus faecalis ATCC51299 assessed as reduction in bacterial growth in presence of phosphatidylglycerol by checkerboard broth dilution method; format: functional, organism-based
Enterococcus faecalis [12] = assay: Antibacterial activity against vancomycin-resistant Enterococcus faecalis ATCC51299 measured after 24 hrs by CLSI based broth microdilution method; format: functional
Cell membrane [13] = assay: Induction of cell membrane depolarization in methicillin-resistant Staphylococcus aureus assessed as reduction in fluorescence intensity measured for 30 mins by DiSC3(5) dye-based fluorescence assay; format: subcellular
Enterococcus faecalis [14] = assay: Induction of morphological changes in biofilm of vancomycin-resistant Enterococcus faecalis ATCC51299 assessed as appearance of destroyed biofilm at 1 to 4 times MIC incubated for 24 hrs by DAPI staining based fluorescence microscopy analysis; format: functional, organism-based
Staphylococcus aureus [15] = assay: Antimicrobial activity against methicillin-resistant Staphylococcus aureus assessed as reduction in bacterial growth in presence of phosphatidylethanolamine by checkerboard broth dilution method; format: functional, organism-based
Staphylococcus aureus [16] = assay: Antibacterial activity against methicillin-resistant Staphylococcus aureus measured after 24 hrs by CLSI based broth microdilution method; format: functional
Staphylococcus aureus [17] = assay: Antibacterial activity against methicillin-resistant Staphylococcus aureus at sub-MIC concentration measured after 24 hrs by CLSI based broth microdilution method; format: functional, organism-based
Enterococcus faecalis [18] = assay: Induction of morphological changes in vancomycin-resistant Enterococcus faecalis ATCC51299 assessed as appearance of died bacterial surface at 4 times MIC measured for 5 hrs by field emission scanning electron microscopy based analysis; format: functional, organism-based
Cell membrane [19] = assay: Induction of cell membrane damage in vancomycin-resistant Enterococcus faecalis ATCC51299 assessed as increase in nucleic acid leakage at 4 times MIC incubated for 2 hrs by absorbance based analysis; format: subcellular
Staphylococcus aureus [20] = assay: Induction of morphological changes in methicillin-resistant Staphylococcus aureus assessed as appearance of clustered bacterial surface at 4 times MIC measured for 5 hrs by field emission scanning electron microscopy based analysis; format: functional, organism-based
Cell membrane [21] = assay: Induction of cell membrane damage in methicillin-resistant Staphylococcus aureus assessed as increase in nucleic acid leakage at 4 times MIC incubated for 2 hrs by absorbance based analysis; format: subcellular
Cell membrane [22] = assay: Induction of cell membrane depolarization in vancomycin-resistant Enterococcus faecalis ATCC51299 assessed as reduction in fluorescence intensity measured for 30 mins by DiSC3(5) dye-based fluorescence assay; format: subcellular
Enterococcus faecalis [23] = assay: Induction of morphological changes in biofilm of vancomycin-resistant Enterococcus faecalis ATCC51299 assessed as decrease in biofilm density at 1 to 4 times MIC incubated for 24 hrs by DAPI staining based fluorescence microscopy analysis; format: functional, organism-based
Staphylococcus aureus [24] = assay: Antimicrobial activity against methicillin-resistant Staphylococcus aureus assessed as reduction in bacterial growth in presence of peptidoglycan by checkerboard broth dilution method; format: functional, organism-based
Staphylococcus aureus [25] = assay: Antibacterial activity against methicillin-resistant Staphylococcus aureus measured after 20 passages by broth microdilution method; format: functional, organism-based
Staphylococcus aureus [26] = assay: Induction of morphological changes in biofilm of methicillin-resistant Staphylococcus aureus assessed as decrease in biofilm density at 1 to 4 times MIC incubated for 24 hrs by DAPI staining based fluorescence microscopy analysis; format: functional, organism-based
Enterococcus faecalis [27] = assay: Antimicrobial activity against vancomycin-resistant Enterococcus faecalis ATCC51299 assessed as reduction in bacterial growth in presence of phosphatidylethanolamine by checkerboard broth dilution method; format: functional, organism-based
Staphylococcus aureus [28] = assay: Antimicrobial activity against methicillin-resistant Staphylococcus aureus assessed as increase in cell membrane fluidity at upto 4 times MIC incubated for 35 mins by Laurdan-GP dye based spectramax gemini XPS microplate reader analysis; format: functional, organism-based
Enterococcus faecalis [29] = assay: Induction of morphological changes in vancomycin-resistant Enterococcus faecalis ATCC51299 assessed as appearance of ruptured bacterial surface at 4 times MIC measured for 5 hrs by field emission scanning electron microscopy based analysis; format: functional, organism-based
Staphylococcus aureus [30] = assay: Bactericidal activity against methicillin-resistant Staphylococcus aureus assessed as reduction in number of bacteria at 2 times MIC measured within 15 mins by time-kill assay; format: functional, organism-based
Enterococcus faecalis [31] = assay: Induction of morphological changes in biofilm of vancomycin-resistant Enterococcus faecalis ATCC51299 assessed as appearance of broken biofilm at 1 to 4 times MIC incubated for 24 hrs by DAPI staining based fluorescence microscopy analysis; format: functional, organism-based
Enterococcus faecalis [32] = assay: Bactericidal activity against vancomycin-resistant Enterococcus faecalis ATCC51299 assessed as reduction in number of bacteria at 1 time MIC measured within 40 mins by time-kill assay; format: functional, organism-based
RAW264.7 = assay: Cytotoxicity against mouse RAW264.7 cells at 16 ug/ml incubated for 24 hrs by MTT assay; format: toxicity, cell-based; conditions: raw264.7, 24 h, dose 16 µg/ml
Staphylococcus aureus [33] = assay: Antibiofilm activity in methicillin-resistant Staphylococcus aureus assessed as increase in biofilm destruction incubated for 24 hrs by crystal violet staining based analysis; format: functional, organism-based
Enterococcus faecalis [34] = assay: Antimicrobial activity against vancomycin-resistant Enterococcus faecalis ATCC51299 assessed as increase in cell membrane fluidity at upto 4 times MIC incubated for 35 mins by Laurdan-GP dye based spectramax gemini XPS microplate reader analysis; format: functional, organism-based
Cell membrane [35] = assay: Induction of cell membrane damage in vancomycin-resistant Enterococcus faecalis ATCC51299 assessed as increase in ROS accumulation at 4 times MIC incubated for 1 hr by fluorescence based analysis; format: subcellular
Staphylococcus aureus [36] = assay: Bactericidal activity against methicillin-resistant Staphylococcus aureus assessed as reduction in number of bacteria at 1 time MIC measured within 40 mins by time-kill assay; format: functional, organism-based

## C=CCCCCCCCCCCCc1cc(O)cc(O)c1C(=O)O
Staphylococcus aureus [1]
  Activity: inactive
Staphylococcus aureus [2]
  Activity: Active
Cell membrane [3]
  Activity: Active
Staphylococcus aureus [4]
  Activity: Active
Staphylococcus aureus [5]
  Activity: Active
Enterococcus faecalis [6]
  Activity: Active
Enterococcus faecalis [7]
  Activity: Active
Enterococcus faecalis [8]
  Activity: Active
Staphylococcus aureus [9]
  Activity: Active
Staphylococcus aureus [10]
  MBC: 4 µg/mL (≈ 12 µM)
Enterococcus faecalis [11]
  Activity: Active
Enterococcus faecalis [12]
  MIC: 4 µg/mL (≈ 12 µM)
Cell membrane [13]
  Activity: Active
Enterococcus faecalis [14]
  Activity: Active
Staphylococcus aureus [15]
  Activity: inactive
Staphylococcus aureus [16]
  Activity: Active
  MIC: 4 µg/mL (≈ 12 µM)
Staphylococcus aureus [17]
  Activity: Active
Enterococcus faecalis [18]
  Activity: Active
Cell membrane [19]
  Activity: Active
Staphylococcus aureus [20]
  Activity: Active
Cell membrane [21]
  Activity: Active
Cell membrane [22]
  Activity: Active
Enterococcus faecalis [23]
  Activity: Active
Staphylococcus aureus [24]
  Activity: Active
Staphylococcus aureus [25]
  Activity: inactive
Staphylococcus aureus [26]
  Activity: Active
Enterococcus faecalis [27]
  Activity: inactive
Staphylococcus aureus [28]
  Activity: Active
Enterococcus faecalis [29]
  Activity: Active
Staphylococcus aureus [30]
  Activity: Active
Enterococcus faecalis [31]
  Activity: Active
Enterococcus faecalis [32]
  Activity: Active
RAW264.7
  Activity: Non-Toxic
Staphylococcus aureus [33]
  Activity: Dose-Dependent Effect
Enterococcus faecalis [34]
  Activity: Active
Cell membrane [35]
  Activity: Active
Staphylococcus aureus [36]
  Activity: Active

## C=CCCCCCCCCCCCc1cc(O)cc(O)c1
Staphylococcus aureus [1]
  Activity: inactive
Staphylococcus aureus [2]
  Activity: Active
Cell membrane [3]
  Activity: Active
Staphylococcus aureus [4]
  Activity: Active
Staphylococcus aureus [5]
  Activity: Active
Enterococcus faecalis [6]
  Activity: Active
Enterococcus faecalis [7]
  Activity: Active
Enterococcus faecalis [8]
  Activity: Active
Staphylococcus aureus [9]
  Activity: Active
Staphylococcus aureus [10]
  MBC: 4 µg/mL (≈ 13.8 µM)
Enterococcus faecalis [11]
  Activity: Active
Enterococcus faecalis [12]
  MIC: 4 µg/mL (≈ 13.8 µM)
Cell membrane [13]
  Activity: Active
Enterococcus faecalis [14]
  Activity: Active
Staphylococcus aureus [15]
  Activity: inactive
Staphylococcus aureus [16]
  Activity: Active
  MIC: 4 µg/mL (≈ 13.8 µM)
Staphylococcus aureus [17]
  Activity: Active
Enterococcus faecalis [18]
  Activity: Active
Cell membrane [19]
  Activity: Active
Staphylococcus aureus [20]
  Activity: Active
Cell membrane [21]
  Activity: Active
Cell membrane [22]
  Activity: Active
Enterococcus faecalis [23]
  Activity: Active
Staphylococcus aureus [24]
  Activity: Active
Staphylococcus aureus [25]
  Activity: inactive
Staphylococcus aureus [26]
  Activity: Active
Enterococcus faecalis [27]
  Activity: inactive
Staphylococcus aureus [28]
  Activity: Active
Enterococcus faecalis [29]
  Activity: Active
Staphylococcus aureus [30]
  Activity: Active
Enterococcus faecalis [31]
  Activity: Active
Enterococcus faecalis [32]
  Activity: Active
RAW264.7
  Activity: Non-Toxic
Staphylococcus aureus [33]
  Activity: Dose-Dependent Effect
Enterococcus faecalis [34]
  Activity: Active
Cell membrane [35]
  Activity: Active
Staphylococcus aureus [36]
  Activity: Active
